From patent US20200208112A1, “Method of Selecting Genetically Modified Hematopoietic Stem Cells” (priority 2017, published 2020) come the findings set out here.

One data set relates to NIH3T3 cells. The experiment in a line: Puromycin selection and ganciclovir sensitivity of LTGCPU7-transduced NIH3T3 cells. The data set is classed as cell-based. How it is done: a. NIH3T3 cells were mock-transduced (NT) or transduced with LTGCPU7, and LTGCPU7-transduced cells were selected with puromycin. Equivalent numbers of mock- and LTGCPU7-transduced/selected cells were treated with GCV at the indicated concentration. Living cells were counted three days later.
(§1) (Beckman Coulter). Where indicated, purification was performed with a Mustang Q anion exchange membrane cartridge (Pall Corporation), as previously described (Kutner et al., Nature protocols, 2009, 4, 495-505) and a 40K ZebaSpin desalting column (ThermoFisher Scientific), according to the manufacturer's instructions, with concentration by ultracentrifugation. Infectious titers were determined by qPCR, as previously described (Payen, E. et al., Methods in enzymology, 2012, 507, 109-124). When indicated, transduced NIH3T3 cells were selected on puromycin and treated with various concentrations of ganciclovir (Cymevan, Roche). Adult and cord blood CD34^+ cells were cultured in SCGM (CellGenix) and X-VIVO 20 (Lonza) medium, respectively, and transduced as previously described (Negre, O. et al., Current gene therapy, 2015, 15, 64-81). Cells were selected 48 hours after transduction, on puromycin hydrochloride (5 μg/mL, Sigma-Aldrich).

For the next data set, the system named is CB CD34+ cells. The experiment in a line: Conditional suicide in vitro: ganciclovir treatment of CB CD34+ cells, erythroid progenitor assay. Type of data set: cell-based, human. How it is done: (§2) a.b.c.d. Human cord blood CD34^+ cells were transduced with LTGCPU7 and treated with puromycin and cyclosporine A for 24 hours. Non-transduced (NT) and LTGCPU7-transduced cells were then treated with ganciclovir (GCV) for three days, counted (a) and plated on semi-solid medium for the evaluation of erythroid progenitor cell eradication (b). Selected cells were also injected into 16 NSG mice, half of which were treated with GCV four weeks later (50 mg/kg, 6 days per week, for 2 weeks). Human chimerism (c) and VCN in human CD45^+ cells (d) were determined 2 months later.
(§3) CB CD34+ cells were transduced with LTGCPU7, they were treated with ganciclovir for 72 hours, and plated on methylcellulose. The toxicity of ganciclovir was limited in non-transduced cells (FIG. 8a and FIG. 8b) and the number of transduced erythroid progenitors decreased by a factor of 200 and 1000 in the presence of 1 μM and 5 μM ganciclovir respectively (FIG. 8b). The transduced cells were injected into 16 NSG mice. Four weeks later, eight of the mice received ganciclovir. […] The absence of hCD45+ cells in mice with levels below the limit of sensitivity (<0.01%) was confirmed by the lack of enrichment observed on hCD45 cell sorting.

Data set [1] deals with transduced human hCD45+ cells. The experiment in a line: Conditional suicide in vivo: ganciclovir treatment of NSG mice carrying transduced human cells. The settings on record: treated group, 50 mg/kg 6 days per week for 2 weeks, two months later. How it is done:
as §2, §3

In data set [2] the test system is mobilized peripheral blood (mPB) CD34+ cells. The experiment in a line: Puromycin selection of transduced mobilized peripheral blood CD34+ cells (mean VCN, progenitor assay). The data set is classed as cell-based, human. How it is done: as §1
(§4) Vector copy numbers were determined by the comparative Ct method and set at integer values. Colony-forming cells with VCN values between 0.5 and 1.5 were considered to have a VCN of 1; those with VCN values between 1.5 and 2.5 were considered to have a VCN of 2, and so on. LTC-IC cells were analyzed as previously described (Payen, E. et al., Methods in enzymology, 2012, 507, 109-124). The percentage of vector-modified LTC-IC during the readout phase of the assay was determined, by subjecting no more than one clonogenic myeloid colony per well to qPCR-based scoring to ensure that only independent LTC-ICs were analyzed.
The LTGCPU1 vector expressing the puromycin N-acetyl-transferase (PAC) gene under the human PGK promoter is derived from a β-globin LV that has been tested in an approved human trial for the gene therapy of the beta-hemoglobinopathies (Cavazzana Calvo et al., Nature, 2010; 467, 318-322; FIG. 1). LTGCPU1 transduced bone marrow (BM) CD34^+ cells were transferred onto selective medium containing 10 μg/mL puromycin at 24 or 48 hours after transduction. They were incubated for 24 hours, and the frequency of functional hematopoietic progenitor cell subsets was evaluated. The absolute numbers of vector-bearing erythroid progenitors (BFU-Es) were similar in the presence and absence of treatment, regardless of the time allowed for PAC gene expression. However, incubation for two days was required for the myeloid (CFU-GMs) and long-term progenitor cells (LTC-ICs) to acquire full resistance to the antibiotic (FIG. 2a). Mobilized peripheral blood (mPB) CD34^+ cells were also transduced with LTGCPU1 and treated with puromycin. The mean vector copy number (VCN) per cell was determined for pooled cells and compared with the theoretical VCN obtained in optimal conditions (eradication of all non-transduced cells and survival of all vector-bearing cells). In non-selective conditions, the mean VCN was 0.17. Based on the assumption that vector integration obeys Poisson statistics (see below), optimal selection should give rise to 1.08 copies of the vector per cell. Mean VCN was 1.6 when cells were selected 24 hours after transduction, and close to the expected value (1.08) if puromycin treatment began two or three days after transduction (FIG. 2b). […] With this optimized protocol, the proportion of vector-bearing progenitors (myeloid and erythroid) increased from 10-20% to more than 90% following treatment with 5 μg/mL puromycin (FIG. 2c).

Data set [3] deals with bone marrow (BM) CD34+ cells. The experiment in a line: Puromycin selection of LTGCPU1-transduced bone marrow CD34+ cells (progenitor and LTC-IC assays). The data set is classed as cell-based, human. The settings on record: 10 μg/mL puromycin for 24 hours, 24 or 48 hours after transduction. The protocol: as §1
Vector copy numbers were determined by the comparative Ct method and set at integer values. […] LTC-IC cells were analyzed as previously described (Payen, E. et al., Methods in enzymology, 2012, 507, 109-124). The percentage of vector-modified LTC-IC during the readout phase of the assay was determined, by subjecting no more than one clonogenic myeloid colony per well to qPCR-based scoring to ensure that only independent LTC-ICs were analyzed. […]

The next data set relates to cord blood CD34+ cells. The experiment in a line: Selection of LTGCPU7-transduced cord blood CD34+ cells, progenitor assay on methylcellulose. Type of data set: cell-based, human. The protocol: as §1, §4
Data set [4] relates to SCID-repopulating cells (SRC). The experiment in a line: Transplantation of transduced and selected cord blood CD34+ cells into NSG mice (SRC selection). The settings on record: puromycin alone, three months after transplantation.
Source text: NOD.Cg-Prkdc^scid Il2rg^tmlWjl/SzJ (NOD-scid IL2rgamma^null abbreviated to NSG) mice were obtained from Charles River Laboratories (Saint Germain sur l'Arbresle, France) and kept in individually ventilated cages supplied with sterile food and autoclaved water. […] Experimental protocols were approved by the ethics committee for animal experimentation of the CEA, under notification number 12-033. Three- to four-month-old female recipients (at least 6 mice per group) were sublethally irradiated with a dose of 2.8 Gy (1 Gy/min) to the whole body (TBI). Then, 10^4 to 10^5 transduced and selected human cells were injected intravenously into the mice on the day after irradiation. […]
For progenitor assays performed immediately after in vitro transduction and selection, 500 to 1000 cells were plated in methylcellulose based-medium already supplemented with human cytokines (H4434, Stemcell Technologies). […] The colonies were counted and collected after incubation for 11-14 days, washed with PBS and stored. […]
Non-viable cells were excluded by Sytox Blue nucleic acid staining (ThermoFisher Scientific) or with 7AAD (eBioscience). Data were acquired with MACSQUANT instrument (Miltenyi) and analyzed with FlowJo software (Tree Star, Inc). […]

For `Nc1nc(O)c2ncn(COC(CO)CO)c2n1` [ganciclovir], the “sensitivity of LTGCPU7-transduced, puromycin-selected cells to ganciclovir” value with NIH3T3 cells was “sensitive”. In the data set on CB CD34+ cells, the “toxicity in non-transduced cells” value is reported as “limited”. For the same compound, in the data set on CB CD34+ cells (5 μM ganciclovir, 72 hours), the “factor of decrease of the number of transduced erythroid progenitors” value turned out to be 1000. In addition, in data set [1], the “mice in which hCD45+ cells were detected” value is reported as “one of the eight mice”.
On to `COc1ccc(C[C@H](N)C(=O)N[C@H]2[C@@H](O)[C@H](n3cnc4c(N(C)C)ncnc43)O[C@@H]2CO)cc1` [puromycin], for which the “absolute numbers of transduced progenitors, presence versus absence of puromycin” value in data set [2] (LTGCPU1-transduced, optimized protocol) is “similar”. Besides, in data set [2] (LTGCPU1-transduced, 5 μg/mL puromycin for 24 hours, 48 hours after transduction), the “proportion of vector-bearing progenitors (myeloid and erythroid)” value is given as “more than 90%”. Besides, the “mean VCN per cell, pooled cells” value in data set [2] (LTGCPU1-transduced, puromycin 10 μg/mL, selected 24 hours after transduction) is 1.6; in data set [2] (LTGCPU1-transduced, puromycin treatment began two or three days after transduction), ~1.08. In data set [2] (mPB cells, after selection with puromycin (data not shown)), the “percentage of transduced progenitor cells in vitro” value stood at 100%. In data set [2] (mPB cells, in vitro), the “mean VCN in puromycin-treated cells” value is recorded as “greater than 1”. Further, the “absolute numbers of vector-bearing erythroid progenitors (BFU-Es), presence versus absence of treatment” value in data set [3] is given as “similar”. Also, in the data set on cord blood CD34+ cells (5 μg/mL puromycin for 24 hours), the “selection of LTGCPU7-transduced cord blood progenitors” value is reported as “efficiently selected”. The “mean VCN in erythroid progenitors, pooled cells from methylcellulose” value in the data set on cord blood CD34+ cells (5 μg/mL puromycin, absence of MDR1 inhibitors) is recorded as “≈ 0.5”. Further, the “mean VCN and percentage of vector-bearing cells in erythroid progenitors versus untreated” value in the data set on cord blood CD34+ cells (puromycin alone) was “higher”. Besides, in data set [4], the “mean VCN in hCD45+ cells isolated from mice versus absence of treatment” value was “similar”.
